Experimental findings from publication PMC7851594 (Genome Biology and Evolution, 2020) are described below.

In assay [1] the target is T1, drT2R3a (Danio rerio, UniProt Q2AB30).
T1 sequence (Q2AB30 1-313): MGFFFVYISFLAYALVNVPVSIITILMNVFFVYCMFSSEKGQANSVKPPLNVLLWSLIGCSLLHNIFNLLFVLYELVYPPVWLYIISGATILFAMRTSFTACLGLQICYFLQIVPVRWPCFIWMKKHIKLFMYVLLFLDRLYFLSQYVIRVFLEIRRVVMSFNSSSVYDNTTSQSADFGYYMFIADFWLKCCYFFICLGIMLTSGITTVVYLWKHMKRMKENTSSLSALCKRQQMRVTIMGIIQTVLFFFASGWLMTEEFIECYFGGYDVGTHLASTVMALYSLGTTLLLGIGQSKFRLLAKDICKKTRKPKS
Format: cell-based.

In assay [2] the target is T1, drT2R3a. Format: cell-based. The source holds these as a separate data set.

With `CC[N+](CC)(CC(=O)Nc1c(C)cccc1C)Cc1ccccc1` [DB, Denatonium benzoate], at drT2R3a [1], a half-maximal response (EC50) required 230 ± 20 µM.
Take `O=C1NS(=O)(=O)c2ccccc21` [saccharin]: at drT2R3a [2], the IC50 (usually the concentration at which inhibition is half-maximal) was found to be 920 ± 280 µM.
